# From US20230365541A1, “INHIBITOR OF ENHANCER OF ZESTE HOMOLOGUE 2, AND USE THEREOF” (HAISCO PHARMACEUTICALS PTE. LTD., priority 2020, published 2023)
# pIC50: −log10 of the molar value. Structures can show the parent of a compound that is named as a salt. Where two headings read alike, the source gives them in different places.
# Columns and labels:
# [1] = Pharmacokinetic experiment in mice (intravenous 5 mg/kg or intragastric 30 mg/kg); format: in vivo
# Description: The administration was performed according to table 5.
# The concentrations of the compounds in EDTA-K2 anticoagulant plasma were determined by the LC-MS/MS method. The linear range of the standard curve of the compounds is 2-2000 ng/mL. After subjected to precipitating proteins with acetonitrile, the samples were analyzed by LC-MS/MS. The standard curve was subjected to a regression calculation using the weighted least square method (W=1/X^2), and quantified by calculating the ratio of test compound peak area to internal standard peak area.
# • (1) except to the blank sample, 400 μL of internal standard working solution (Verapamil internal standard concentration in precipitant acetonitrile is 10.0 ng/mL) was added to a 1.5 mL centrifuge tube containing 30 μL of standard curve samples and quality control samples; • 200 μL of internal standard working solution (Verapamil internal standard concentration in precipitant acetonitrile is 10.0 ng/mL) was added to a 1.5 mL centrifuge tube containing 15 μL of unknown samples; • and 400 μL of acetonitrile was added to the blank sample; • (2) the mixture was mixed evenly for about 1 min in a vortex mixer; • (3) centrifugation was carried out at 10000 rpm at 4C for 10 mi; • (4) 175 μL of the supernatant was transferred to a new 96-well polypropylene plate, and then the plate was sealed and placed in a 10° C. sample tray for injection.
# EZH2 = EZH2 (Homo sapiens (Human), UniProt Q15910); test: Test method for EZH2 enzyme activity; format: biochemical; conditions: H3K27(21-44) and [3H]-SAM
# Chain of EZH2 (Q15910 other isoform, or with tags, fused parts or gaps isoform Q15910-2): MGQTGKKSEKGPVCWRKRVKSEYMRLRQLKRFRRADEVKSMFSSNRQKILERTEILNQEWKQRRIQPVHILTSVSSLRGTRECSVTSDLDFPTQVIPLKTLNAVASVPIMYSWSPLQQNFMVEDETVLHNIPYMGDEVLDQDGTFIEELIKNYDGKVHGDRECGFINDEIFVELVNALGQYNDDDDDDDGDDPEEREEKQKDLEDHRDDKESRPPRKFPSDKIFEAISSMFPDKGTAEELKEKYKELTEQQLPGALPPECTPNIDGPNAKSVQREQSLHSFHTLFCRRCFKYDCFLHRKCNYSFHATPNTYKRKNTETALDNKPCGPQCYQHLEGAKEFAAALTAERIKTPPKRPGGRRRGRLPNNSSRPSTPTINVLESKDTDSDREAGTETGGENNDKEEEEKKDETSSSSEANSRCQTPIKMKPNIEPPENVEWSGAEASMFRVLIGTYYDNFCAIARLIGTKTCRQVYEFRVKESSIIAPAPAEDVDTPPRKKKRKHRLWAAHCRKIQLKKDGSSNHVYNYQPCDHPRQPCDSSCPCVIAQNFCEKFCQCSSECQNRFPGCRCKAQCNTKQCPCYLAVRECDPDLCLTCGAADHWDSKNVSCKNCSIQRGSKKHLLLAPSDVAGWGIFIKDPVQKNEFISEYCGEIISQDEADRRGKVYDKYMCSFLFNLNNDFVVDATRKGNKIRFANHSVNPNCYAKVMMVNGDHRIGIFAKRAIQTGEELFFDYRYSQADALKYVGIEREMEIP
# Chain of EZH2 (O75530 2-441 partner): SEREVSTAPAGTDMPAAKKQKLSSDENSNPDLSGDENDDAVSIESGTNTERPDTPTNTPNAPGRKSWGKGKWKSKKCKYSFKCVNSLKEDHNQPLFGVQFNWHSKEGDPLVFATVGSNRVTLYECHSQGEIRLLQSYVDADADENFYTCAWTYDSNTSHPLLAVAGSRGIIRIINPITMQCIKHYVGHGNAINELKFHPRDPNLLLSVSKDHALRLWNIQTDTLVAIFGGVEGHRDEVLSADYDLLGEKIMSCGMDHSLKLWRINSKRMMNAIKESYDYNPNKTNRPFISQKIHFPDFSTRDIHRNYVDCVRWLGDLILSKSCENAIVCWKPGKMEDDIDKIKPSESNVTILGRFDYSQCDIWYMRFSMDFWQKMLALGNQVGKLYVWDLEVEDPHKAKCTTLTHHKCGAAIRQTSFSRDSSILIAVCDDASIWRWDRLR
# Chain of EZH2 (Q15022 2-739 partner): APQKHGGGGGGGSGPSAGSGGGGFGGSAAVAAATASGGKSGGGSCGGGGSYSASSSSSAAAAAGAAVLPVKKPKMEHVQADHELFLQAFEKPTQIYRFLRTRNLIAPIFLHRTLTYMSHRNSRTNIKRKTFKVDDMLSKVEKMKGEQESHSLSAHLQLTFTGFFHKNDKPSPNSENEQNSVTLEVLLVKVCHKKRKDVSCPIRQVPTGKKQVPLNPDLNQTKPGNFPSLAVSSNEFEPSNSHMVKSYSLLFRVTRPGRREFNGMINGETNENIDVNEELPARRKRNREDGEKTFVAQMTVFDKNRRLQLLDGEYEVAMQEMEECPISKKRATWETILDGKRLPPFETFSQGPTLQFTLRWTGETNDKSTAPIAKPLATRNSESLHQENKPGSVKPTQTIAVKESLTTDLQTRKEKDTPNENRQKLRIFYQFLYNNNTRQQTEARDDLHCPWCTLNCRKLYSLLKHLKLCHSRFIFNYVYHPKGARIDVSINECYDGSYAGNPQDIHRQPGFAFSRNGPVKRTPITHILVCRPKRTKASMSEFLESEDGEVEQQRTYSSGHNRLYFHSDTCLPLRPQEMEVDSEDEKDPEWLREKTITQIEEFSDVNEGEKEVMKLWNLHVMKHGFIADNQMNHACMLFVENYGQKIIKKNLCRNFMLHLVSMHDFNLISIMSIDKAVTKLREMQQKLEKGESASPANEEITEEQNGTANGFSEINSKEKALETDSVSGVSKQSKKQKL
# Chain of EZH2 (Q09028 2-425 partner): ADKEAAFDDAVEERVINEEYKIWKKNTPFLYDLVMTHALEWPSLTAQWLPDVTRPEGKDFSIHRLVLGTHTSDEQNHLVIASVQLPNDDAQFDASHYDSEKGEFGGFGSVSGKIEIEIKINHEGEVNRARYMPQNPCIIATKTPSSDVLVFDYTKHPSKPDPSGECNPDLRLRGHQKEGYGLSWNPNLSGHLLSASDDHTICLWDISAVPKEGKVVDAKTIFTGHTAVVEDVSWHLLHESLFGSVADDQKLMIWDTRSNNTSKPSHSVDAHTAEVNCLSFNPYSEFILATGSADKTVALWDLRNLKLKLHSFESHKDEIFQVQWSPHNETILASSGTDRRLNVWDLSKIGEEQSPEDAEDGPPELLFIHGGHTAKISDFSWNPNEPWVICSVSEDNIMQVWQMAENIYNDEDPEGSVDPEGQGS
# Chain of EZH2 (Q6ZN18 whole entry partner): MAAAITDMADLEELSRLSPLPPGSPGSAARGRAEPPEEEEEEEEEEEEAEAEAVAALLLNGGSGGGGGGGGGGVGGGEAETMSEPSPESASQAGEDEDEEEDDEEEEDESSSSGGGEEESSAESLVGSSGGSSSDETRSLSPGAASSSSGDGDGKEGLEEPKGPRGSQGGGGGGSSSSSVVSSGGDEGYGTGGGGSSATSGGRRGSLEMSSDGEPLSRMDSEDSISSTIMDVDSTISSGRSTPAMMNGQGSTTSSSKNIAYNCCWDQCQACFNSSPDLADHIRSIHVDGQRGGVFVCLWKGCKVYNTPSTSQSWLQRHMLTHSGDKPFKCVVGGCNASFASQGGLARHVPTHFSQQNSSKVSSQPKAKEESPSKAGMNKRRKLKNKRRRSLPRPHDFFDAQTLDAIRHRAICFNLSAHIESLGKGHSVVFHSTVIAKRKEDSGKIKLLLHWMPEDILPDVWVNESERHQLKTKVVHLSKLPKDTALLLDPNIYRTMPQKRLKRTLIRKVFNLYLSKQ
# Description: The compounds were dissolved in DMSO, formulated into 10 mM solutions and serially diluted with DMSO to obtain 100-fold the final concentration. 200 nL of the solutions of the compounds was transferred to a 384-well plate (Perkin Elmer, Cat. No. 6007299) by using Echo550. EZH2 (BPS, Cat. No. 51004) was diluted with 1×assay buffer (50 mM Tris-HCl 9.0, 0.01% Tween-20, 1 mM DTT) to 2-fold the final concentration (EZH2: 3 nM). A mixed solution of H3K27(21-44) and [3H]-SAM (PerkinElmer, Lot. No. 2146246) (H3K27(21-44): 200 nM, [3H]-SAM: 100 nM) was formulated. The EZH2 diluted solution was taken and added to the 384-well plate at 10 μL/well (10 μL of 1×assay buffer was added in the control group). The plate was sealed and then incubated at room temperature for 15 minutes. 10 μL of the mixed solution of H3K27 (21-44) and [3H]-SAM was added to each well. The plate was sealed and then incubated at room temperature for 60 minutes. 50 μM of SAM (Sigma, Cat. No. A7007) was formulated at low temperature and added to the 384-well plate at 10 μL/well. The sample was taken at 25 μL/well, transferred to a flashplate and incubated at room temperature for at least 1 hour. The flashplate was washed 3 times with a plate washing liquid (dH2O+0.1% Tween-20) and read by using Microbeta. The inhibition rate was calculated in Excel according to: inhibition rate (%)=(maximum valuepositive control−detection signal value)/(maximum valuepositive control−minimum valuenegative control)*100, and IC50 values were fitted by using XL-Fit.
# [2] = ICR mice, IV 5 mg/kg, listed as Compound 44, Isomer 2
# [3] = ICR mice, PO 30 mg/kg, listed as Compound 44, Isomer 2
# [4] = ICR mice, PO 30 mg/kg, listed as Compound 53, Isomer 1
# [5] = ICR mice, IV 5 mg/kg, listed as Compound 53, Isomer 2
# [6] = ICR mice, PO 30 mg/kg, listed as Compound 53, Isomer 2
structure (smiles),measurement,setting,value
"[2H]C([2H])(NC(=O)c1cc(Cl)c2c(c1C)OC(C)([C@H]1CC[C@@H](NC3CC(F)(F)C3)CC1)O2)c1c(SC)cc(C)[nH]c1=O (single isomer, unassigned) [Compound 44, isomer 2, 7-chloro-2-(4-((3,3-difluorocyclobutyl)amino)cyclohexyl)-2,4-dimethyl-N-((6-methyl-4-(methylthio)-2-oxo-1,2-dihydropyridin-3-yl)methyl-d2)benzo[d][1,3]dioxole-5-carboxamide]",AUC,[1]; [2],713 ng·h/mL
same,C0,[1]; [2],2482 ng/mL
same,T1/2,[1]; [2],2.33 h
same,F %,"[1]; ICR mice, PO 30 mg/kg vs IV 5 mg/kg, listed as Compound 44, Isomer 2",27.4%
same,AUC,[1]; [3],917 ng·h/mL
same,Cmax,[1]; [3],463 ng/mL
same,T1/2,[1]; [3],1.81 h
same,Tmax,"[1]; male, ICR, mouse, plasma, po, 30 mg/kg, PO 30 mg/kg, read-out: Tmax",1 h
same,pIC50,EZH2,9.29
"CSc1cc(C)[nH]c(=O)c1CNC(=O)c1cc(Cl)c2c(c1C)OC(C)(C1CCC(c3cnn(C)c3)CC1)O2 (single isomer, unassigned) [Compound 8, isomer 2, 7-chloro-2,4-dimethyl-2-(4-(1-methyl-1H-pyrazol-4-yl)cyclohexyl)-N-((6-methyl-4-(methylthio)-2-oxo-1,2-dihydropyridin-3-yl)methyl)benzo[d][1,3]dioxole-5-carboxamide]",pIC50,EZH2,9.05
"CSc1cc(C)[nH]c(=O)c1CNC(=O)c1cc(Cl)c2c(c1C)OC(C)([C@H]1CC[C@H](CNC3CC(F)(F)C3)CC1)O2 (single isomer, unassigned) [Compound 40, isomer 1, 7-chloro-2-(4-(((3,3-difluorocyclobutyl)amino)methyl)cyclohexyl)-2,4-dimethyl-N-((6-methyl-4-(methylthio)-2-oxo-1,2-dihydropyridin-3-yl)methyl)benzo[d][1,3]dioxole-5-carboxamide]",pIC50,EZH2,9.21
"[2H]C([2H])(NC(=O)c1cc(Cl)c2c(c1C)OC(C)(C1CCC(N[C@H]3C[C@H](F)C3)CC1)O2)c1c(SC)cc(C)[nH]c1=O (single isomer, unassigned) [Compound 53, isomer 1, 7-chloro-2-(4-((trans-3-fluorocyclobutyl)amino)cyclohexyl)-2,4-dimethyl-N-((6-methyl-4-(methylthio)-2-oxo-1,2-dihydropyridin-3-yl)methyl-d2)benzo[d][1,3]dioxole-5-carboxamide]",Cmax,[1]; [4],1025 ng/mL
same,T1/2,[1]; [4],1.10 h
same,Tmax,[1]; [4],0.500 h
same,half-life,"[1]; male, ICR, mouse, plasma, iv, 5 mg/kg, IV 5 mg/kg",1.21 h
same,AUC,"[1]; male, ICR, mouse, plasma, iv, 5 mg/kg, IV 5 mg/kg, read-out: AUC",703 ng·h/mL
same,C0,"[1]; male, ICR, mouse, plasma, iv, 5 mg/kg, IV 5 mg/kg, read-out: C0",2360 ng/mL
same,bioavailability,"[1]; male, ICR, mouse, plasma, po, 30 mg/kg, PO 30 mg/kg vs IV 5 mg/kg",47.9%
same,AUC,"[1]; male, ICR, mouse, plasma, po, 30 mg/kg, PO 30 mg/kg, read-out: AUC",2020 ng·h/mL
same,pIC50,EZH2,9.48
"CSc1cc(C)[nH]c(=O)c1CNC(=O)c1cc(Cl)c2c(c1C)OC(C)(C1CCC(N3CCC4(CNC(=O)C4)C3)CC1)O2 (single isomer, unassigned) [Compound 18, isomer 2, 7-chloro-2,4-dimethyl-N-((6-methyl-4-(methylthio)-2-oxo-1,2-dihydropyridin-3-yl)methyl)-2-(4-(8-oxo-2,7-diazaspiro[4.4]nonan-2-yl)cyclohexyl)benzo[d][1,3]dioxole-5-carboxamide]",pIC50,EZH2,9.11
"[2H]C([2H])(NC(=O)c1cc(Cl)c2c(c1C)OC(C)(C1CCN(CC3CC(F)(F)C3)CC1)O2)c1c(SC)cc(C)[nH]c1=O (stereo not drawn) [Compound 28, 7-chloro-2-(1-((3,3-difluorocyclobutyl)methyl)piperidin-4-yl)-2,4-dimethyl-N-((6-methyl-4-(methylthio)-2-oxo-1,2-dihydropyridin-3-yl)methyl-d2)benzo[d][1,3]dioxole-5-carboxamide]",pIC50,EZH2,9.31
"CSc1cc(C)[nH]c(=O)c1CNC(=O)c1cc(Cl)c2c(c1C)OC(C)(C1CCN(C(=O)c3csc(C)n3)CC1)O2 (stereo not drawn) [Compound 21, 7-chloro-2,4-dimethyl-N-((6-methyl-4-(methylthio)-2-oxo-1,2-dihydropyridin-3-yl)methyl)-2-(1-(2-methylthiazole-4-carbonyl)piperidin-4-yl)benzo[d][1,3]dioxole-5-carboxamide]",pIC50,EZH2,9.21
"[2H]C([2H])(NC(=O)c1cc(Cl)c2c(c1C)OC(C)(C1CCC(N[C@H]3C[C@H](F)C3)CC1)O2)c1c(SC)cc(C)[nH]c1=O (single isomer, unassigned) [Compound 53, isomer 2, 7-chloro-2-(4-((trans-3-fluorocyclobutyl)amino)cyclohexyl)-2,4-dimethyl-N-((6-methyl-4-(methylthio)-2-oxo-1,2-dihydropyridin-3-yl)methyl-d2)benzo[d][1,3]dioxole-5-carboxamide]",AUC,[1]; [5],954 ng·h/mL
same,C0,[1]; [5],2665 ng/mL
same,T1/2,[1]; [5],1.87 h
same,F %,"[1]; ICR mice, PO 30 mg/kg vs IV 5 mg/kg, listed as Compound 53, Isomer 2",38.4%
same,AUC,[1]; [6],2201 ng·h/mL
same,Cmax,[1]; [6],476 ng/mL
same,T1/2,[1]; [6],4.51 h
same,Tmax,[1]; [6],4.00 h
"CSc1cc(C)[nH]c(=O)c1CNC(=O)c1cc(Cl)c2c(c1C)OC(C)([C@H]1CC[C@@H](C(=O)N3CC(F)(F)C3)CC1)O2 (single isomer, unassigned; isomer 2) [Compound 47, isomer 2, 7-chloro-2-(4-(3,3-difluoroazetidine-1-carbonyl)cyclohexyl)-2,4-dimethyl-N-(di-deuterated(6-methyl-4-(methylthio)-2-oxo-1,2-dihydropyridin-3-yl)di-deuterated-methyl)benzo[d][1,3]dioxole-5-carboxamide]",pIC50,EZH2,9.04
"CSc1cc(C)[nH]c(=O)c1CNC(=O)c1cc(Cl)c2c(c1C)OC(C)([C@H]1CC[C@@H](NCC3(C)COC3)CC1)O2 (single isomer, unassigned) [Compound 3, isomer 1, 7-chloro-2,4-dimethyl-N-((6-methyl-4-(methylthio)-2-oxo-1,2-dihydropyridin-3-yl)methyl)-2-(4-(((3-methyloxetan-3-yl)methyl)amino)cyclohexyl)benzo[d][1,3]dioxole-5-carboxamide trifluoroacetate]",pIC50,EZH2,9.19
"CSc1cc(C)[nH]c(=O)c1CNC(=O)c1cc(Cl)c2c(c1C)OC(C)([C@H]1CC[C@@H](N3CC4CN(C)CC4C3)CC1)O2 (single isomer, unassigned) [Compound 42, isomer 1, 7-chloro-2,4-dimethyl-N-((6-methyl-4-(methylthio)-2-oxo-1,2-dihydropyridin-3-yl)methyl)-2-(4-(5-methylhexahydropyrrolo[3,4-c]pyrrol-2(1H)-yl)cyclohexyl)benzo[d][1,3]dioxole-5-carboxamide]",pIC50,EZH2,9.47
"CSc1cc(C)[nH]c(=O)c1CNC(=O)c1cc(Cl)c2c(c1C)OC(C)(C1CCN(C3CC(F)(F)C3)CC1)O2 (single isomer, unassigned) [Compound 12, isomer 1, 7-chloro-2-(1-(3,3-difluorocyclobutyl)piperidin-4-yl)-2,4-dimethyl-N-((6-methyl-4-(methylthio)-2-oxo-1,2-dihydropyridin-3-yl)methyl)benzo[d][1,3]dioxole-5-carboxamide]",pIC50,EZH2,9.13
"CSc1cc(C)[nH]c(=O)c1CNC(=O)c1cc(Cl)c2c(c1C)OC(C)(C1CCN(C3CC3)CC1)O2 (stereo not drawn) [Compound 24, 7-chloro-2-(1-cyclopropylpiperidin-4-yl)-2,4-dimethyl-N-((6-methyl-4-(methylthio)-2-oxo-1,2-dihydropyridin-3-yl)methyl)benzo[d][1,3]dioxole-5-carboxamide]",pIC50,EZH2,9.24
